The results in this text go back to patent publication US6497862B2, “Composition for inhibiting body odor and uses thereof” (Kabushiki Kaisha Hayashibara, priority 2000, dated 2002).

Test [1] in a line: Formation of volatile aldehydes from oleic acid by heating, GC analysis of head space gas (Experiment 1). The note with it: oleic acid 100 mg + 100 mg test saccharide, heated at 105° C. for one hour; for Content in HSG, Hexanal: control 0.08; for Content in HSG, Butanal: control 1.04; for Content in HSG, Propanal: control 9.41. As to the method:
(§1) One hundred milligrams of oleic acid as a fatty acid, 500 mg of cellulose powder, and 1.25 ml of 0.12 M phosphate buffer (pH 6.0) were placed in a 20-ml glass vial. To the glass vial were added 100 mg of either of crystalline trehalose hydrate, crystalline maltitol anhydride, crystalline sorbitol anhydride, crystalline sucrose anhydride, crystalline maltose anhydride, and crystalline neotrehalose hydride as test saccharides (throughout Experiments 1 to 6, these saccharides are designated as “trehalose”, “maltitol”, sorbitol”, “sucrose”, “maltose”, and “neotrehalose”, respectively), followed by sealing the glass vial with a butyl rubber. As a control system, there provided a glass vial, with no a test saccharide, which differed from the test glass vial on this point. These glass vials were heated at 105° C. for one hour, cooled to ambient temperature, and kept in an aluminum heat-block (abbreviated as “heat block, hereinafter”), which had been preheated to 80° C. After 5-minutes standing, two milliliters of a head space gas (abbreviated as “HSG”, hereinafter) were collected from each glass vial with a syringe.
(§2) The collected HSG was analyzed for content of volatile aldehydes on gas chromatography (abbreviated as “GC” hereinafter) using “GAS CHROMATOGRAPH GC-14A”, as a GC apparatus; “CAPILLARY COLUMN SUPELCO-WAX”, having 0.25 mm in inner diameter, 60 m in length, and 0.25 μm in thickness, commercialized by Supelco Inc., Tokyo, Japan, as a column for analysis; helium gas at a flow rate of one ml/min as a carrier gas, under temperature conditions of 250° C. for injecting a sample and of a column thermostatic bath temperature being kept at 80° C. for five minutes and then increased up to 240° C. at a rate of 5° C./min. As standard specimens, propanal, butanal, and hexanal as volatile aldehydes were used. Based on the peak area obtained from gas chromatography for the standard specimens and HSG samples, the content of respective volatile aldehydes in HSG was calculated.

Test [2] is described as follows: Panel test of body-odor-like smell (KAREI-SHU), 9-hexadecanoic acid heated (Experiment 3). Also on record: key: +++: the same or higher level of odor; ++: slightly lower level of odor; +: clearly lower level of odor than that of the control system. The note with it: compared with control system. An excerpt: (§3) Upon the HSG samples, the level of a body-odor-like smell was examined on a panel test consisting of six professional panels; the panels directly smelled the samples from each glass vial and judged the level of the smells for each samples with test saccharides based on the following four ranks, i.e., the same or higher level of odor (+++), slightly lower level of odor (++), clearly lower level of odor (+), and odorless (−) as compared with the control system. Summing up the data from the panels, the samples tested were totally evaluated.
(§4) The content of 2-nonenal in HSG was measured by GC similarly as in Experiment 1 except that 9-hexadecanoic acid or palmitoleic acid was used as a fatty acid and 2-nonenal, a volatile aldehyde, was used as a standard substance. The level of body-odor-like smell, particularly with respect to KAREI-SHU, in each sample was evaluated by panel test in accordance with the method in Experiment 1.

The nature of test [3]: Formation of 2-nonenal from 9-hexadecanoic acid by heating, GC of HSG (Experiment 3). The conditions noted are these: 9-hexadecanoic acid + 100 mg test saccharide, heated at 105° C. for one hour; control 25.7. How it is done:
as §1, §2, §4

A short description of test [4]: Panel test of body-odor-like smell (KAREI-SHU), linoleic acid heated (Experiment 2). Also on record: key: +++: the same or higher level of odor; ++: slightly lower level of odor; +: clearly lower level of odor than that of the control system. The conditions noted are these: compared with control system.
Source text: as §3
(§5) The content of 2-nonenal in HSG was measured by GC similarly as in Experiment 1 except that linoleic acid was used as a fatty acid and 2-nonenal, a volatile aldehyde, was used as a standard substance. The level of a body-odor-like smell, particularly with respect to KAREI-SHU, in each sample was evaluated by panel test in accordance with the method in Experiment 1.

Test [5] can be described thus: Panel test of body-odor-like smell, oleic acid heated (Experiment 1). Also on record: key: +++: the same or higher level of odor; ++: slightly lower level of odor; +: clearly lower level of odor than that of the control system. The note with it: oleic acid heated at 105° C. for one hour; six panels, compared with control system. How it is done: as §1, §3
Test [6] is described as follows: Formation of 2-nonenal from linoleic acid by heating, GC of HSG (Experiment 2). The note with it: linoleic acid + 100 mg test saccharide, heated at 105° C. for one hour; control 5.75. As to the method: as §1, §2, §5

The structures appear in SMILES notation.

As for `OC[C@H]1O[C@H](O[C@H]2[C@H](O)[C@@H](O)C(O)O[C@@H]2CO)[C@H](O)[C@@H](O)[C@@H]1O` (mixture of isomers) [Maltose, maltose], the “Content in HSG, Hexanal” value in test [1] is 0.07 µg/mL. The “Content in HSG, Butanal” value in test [1] is 1.38 µg/mL. For the same molecule, the “Content in HSG, Propanal” value in test [1] is 9.09 µg/mL. The “Evaluation of panel test” value in test [2], in test [4] and in test [5] was “+++” throughout. Besides, the “Content of 2-nonenal in HSG” value in test [3] was 24.2 µg/mL; in test [6], 4.60 µg/mL.

On to `OC[C@H]1O[C@@H](O[C@H]2O[C@H](CO)[C@@H](O)[C@H](O)[C@H]2O)[C@H](O)[C@@H](O)[C@@H]1O` [Neotrehalose, neotrehalose], for which the “Content in HSG, Hexanal” value in test [1] is 0.08 µg/mL. The “Content in HSG, Butanal” value in test [1] was 1.25 µg/mL. In addition, in test [1], the “Content in HSG, Propanal” value came to 8.89 µg/mL. Also, the “Evaluation of panel test” value in test [2], in test [4] and in test [5] was “+++” throughout. Further, the “Content of 2-nonenal in HSG” value was determined as 25.7 µg/mL in test [3] and 5.64 µg/mL in test [6].

Consider `OC[C@@H](O)[C@@H](O)[C@H](O)[C@@H](O)CO` [Sorbitol, sorbitol], for which, in test [1], the “Content in HSG, Hexanal” value came to 0.06 µg/mL. In addition, the “Content in HSG, Butanal” value in test [1] was 1.06 µg/mL. Also, the “Content in HSG, Propanal” value in test [1] is 8.31 µg/mL. The “Evaluation of panel test” value in test [2], in test [4] and in test [5] was “+++” throughout. Besides, the “Content of 2-nonenal in HSG” value in test [3] was found to be 23.6 µg/mL; in test [6] it was 5.12 µg/mL.
